Measured values from ChEMBL document CHEMBL1201862, “PubChem BioAssay data set” (2004).
Blank lines part the entries; values can stand above or below the molecule they belong to. Active and inactive are the calls of the source.

Legend:
[1] = target: T1, Heat shock factor protein 1 (Mus musculus, UniProt P38532); experiment: decrease of HSF1-responsive luciferase luminescence – cell-based, NIH3T3, dose retest, confirmation (AID 2382); format: functional;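 also: NIH3T3 fibroblasts with HSF1-driven luciferase reporter stressed by proteasome inhibitor MG132; luminescence from HSF1-driven luciferase expression after 8 hours of MG132 stress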
T1 sequence (P38532 whole entry): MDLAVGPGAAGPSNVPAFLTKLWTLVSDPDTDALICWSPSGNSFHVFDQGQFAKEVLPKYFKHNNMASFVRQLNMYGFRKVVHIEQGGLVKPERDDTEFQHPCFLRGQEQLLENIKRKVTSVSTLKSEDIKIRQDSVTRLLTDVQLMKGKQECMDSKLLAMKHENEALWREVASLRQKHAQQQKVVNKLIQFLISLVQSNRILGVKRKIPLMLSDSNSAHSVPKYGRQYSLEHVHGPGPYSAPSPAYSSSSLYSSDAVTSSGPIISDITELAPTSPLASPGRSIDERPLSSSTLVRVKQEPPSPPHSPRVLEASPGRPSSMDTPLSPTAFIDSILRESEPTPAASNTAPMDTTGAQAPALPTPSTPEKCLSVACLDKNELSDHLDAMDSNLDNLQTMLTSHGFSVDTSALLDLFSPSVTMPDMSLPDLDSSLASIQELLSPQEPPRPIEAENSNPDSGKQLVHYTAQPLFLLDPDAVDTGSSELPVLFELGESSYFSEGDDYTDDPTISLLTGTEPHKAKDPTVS

[2] = target: Luciferin 4-monooxygenase (Photinus pyralis, UniProt P08659); experiment: inhibition of purified Photinus pyralis luciferase – biochemical, luminescence, dose response (AID 1891)
[3] = Luminescence Cell-Based Dose Confirmation HTS to Identify Inhibitors of Platelet Dense Granule Release. [Related pubchem assays: 1663 (Primary HTS), 1678 (Summary of Project)]; format: functional
[4] = ADP-Glo luciferase signal interference – biochemical, luminescence, cherry-picked samples, set 2, artefact control for CDK5 inhibitor project, dose response (AID 504546); format: functional, cell-based
[5] = target: Cyclin-dependent kinase 5/CDK5 activator 1 (Homo sapiens, UniProt Q00535); experiment: blockade of human CDK5 activity – biochemical, cherry-picked samples, set 2, dose response (AID 504545)
[6] = HEK-293T viability loss after treatment – luminescence, T-cell screen hits, cytotoxicity control for TCR NF-kB inhibitor project, dose response (AID 489026); format: functional, cell-based;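 also: cells exposed to compound about 14 hours before the viability readout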
Paired box protein Pax-8 = Paired box protein Pax-8 (Homo sapiens, UniProt Q06710); experiment: PAX8 transcriptional activity inhibition in RMG-I – RMG-I cells, luciferase, cherry-pick, dose response (AID 687027); format: functional, cell-based;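 also: luciferase reporter driven by Pax8 target thyroperoxidase promoter measured by SteadyGlo luminescence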
[7] = general cell-killing toxicity readout – plate reader, dry powder samples, cytotoxicity control for PAX8 inhibitor project, dose response (AID 743021); format: functional, cell-based
[8] = target: Eukaryotic translation initiation factor 4H (Homo sapiens, UniProt Q15056); experiment: inhibitors of translation initiation factor eIF4H – SAR follow-up (AID 435011); format: functional
[9] = target: Polyadenylate-binding protein 1 (Homo sapiens, UniProt P11940); experiment: PABP inhibition in translation initiation, SAR follow-up (AID 435018); format: functional
[10] = target: Melanin-concentrating hormone receptor 1 (Homo sapiens, UniProt Q99705); experiment: Late-stage fluorescence-based counterscreen for antagonists of the G-protein coupled receptor 7 (GPR7): cell-based dose response assay to identify antagonists of the melanin-concentrating hormone receptor 1 (MCHR1). [Related pubchem assays (depositor defined):AID1861, AID1880, AID1952, AID2148, AID2251, AID2257, AID485339]; format: functional;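 also: stimulated with 30 nM MCH peptide agonist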
[11] = target: T2, Neuropeptides B/W receptor type 1 (Homo sapiens, UniProt P48145); experiment: human NPBW1 receptor blockade, IC50 – cell-based, fluorescence, dose response, late-stage follow-up (AID 463251); format: functional
T2 sequence (P48145 whole entry): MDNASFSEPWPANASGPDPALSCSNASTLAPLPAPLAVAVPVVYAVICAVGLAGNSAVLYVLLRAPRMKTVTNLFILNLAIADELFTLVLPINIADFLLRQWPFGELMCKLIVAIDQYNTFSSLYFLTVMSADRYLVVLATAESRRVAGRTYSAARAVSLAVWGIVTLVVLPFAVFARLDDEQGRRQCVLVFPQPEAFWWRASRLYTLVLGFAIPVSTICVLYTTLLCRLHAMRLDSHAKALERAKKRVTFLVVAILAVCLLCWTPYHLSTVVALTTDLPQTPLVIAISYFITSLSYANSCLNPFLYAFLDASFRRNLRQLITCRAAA

[12] = target: Potassium voltage-gated channel subfamily KQT member 2 (Rattus norvegicus, UniProt O88943); experiment: potentiation of rat KCNQ2 current – cell-based, retigabine-insensitive compounds, dose response (AID 2654); format: functional
[13] = target: Voltage-gated N-type calcium channel alpha-1B subunit/Amyloid beta A4 precursor protein-binding family A member 1 (Homo sapiens, UniProt Q00975+Q02410); experiment: disruptors of Mint-PDZ/N-type channel peptide interaction – biochemical, HTRF, set 2, SAR follow-up (AID 434980); format: functional
[14] = target: G-protein coupled receptor 35 (Homo sapiens, UniProt Q9HC97); experiment: SAR analysis of Antagonists of the GPR35 Receptor using an Image-Based Assay - Set 5. [Related pubchem assays (depositor defined):AID2058, AID2079]; format: functional
[15] = target: G-protein coupled receptor 55 (Homo sapiens, UniProt Q9Y2T6); experiment: SAR Analysis of Selective Antagonists of GPR55 using an Image-Based Assay - Set 3. [Related pubchem assays (depositor defined):AID2058, AID2079]; format: functional
[16] = target: Protein phosphatase methylesterase 1 (Homo sapiens, UniProt Q9Y570); experiment: endogenous PME-1 and serine hydrolase inhibition – cell lysate, mouse brain cytosol, FP-rhodamine, gel ABPP, selectivity assay for PME-1 inhibitor project, dose response, panel member PME-1 Assay Panel member description: Inhibition of endogenously expressed PME-1 (AID 2366)
[17] = target: Neurotensin receptor type 1 (Homo sapiens, UniProt P30989); format: functional;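 also: Image-based confirmatory dose-response assay measuring agonist activity at NTR1; NTR1-expressing U2OS osteosarcoma cells imaged for beta-arrestin GFP spot formation; agonist potency where compounds increase beta-arrestin recruitment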
[18] = target: T1, Heat shock factor protein 1; experiment: enhancement of HSF1-driven luciferase signal – cell-based, NIH3T3, luminescence, dose retest, confirmation (AID 435004); format: functional;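 also: stress induced by proteasome inhibitor MG132 added 30 min after compound; luciferase reporter driven by HSF1 response element in NIH3T3 cells; actives raise luminescence as potentiators of the MG132 stress response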
Wee1-like protein kinase = Wee1-like protein kinase (Homo sapiens, UniProt P30291); experiment: HeLa cell cycle G2/M accumulation – FACS, mechanism study for Wee1 degradation inhibitor project, late-stage follow-up, panel member Wee1 Degradation (AID 2088)
[19] = target: G2/mitotic-specific cyclin-B1 (Homo sapiens, UniProt P14635); experiment: HeLa cell cycle G2/M accumulation – FACS, mechanism study for Wee1 degradation inhibitor project, late-stage follow-up, panel member Cyclin B Degradation (AID 2088)

Luciferin 4-monooxygenase, sequence (P08659 whole entry): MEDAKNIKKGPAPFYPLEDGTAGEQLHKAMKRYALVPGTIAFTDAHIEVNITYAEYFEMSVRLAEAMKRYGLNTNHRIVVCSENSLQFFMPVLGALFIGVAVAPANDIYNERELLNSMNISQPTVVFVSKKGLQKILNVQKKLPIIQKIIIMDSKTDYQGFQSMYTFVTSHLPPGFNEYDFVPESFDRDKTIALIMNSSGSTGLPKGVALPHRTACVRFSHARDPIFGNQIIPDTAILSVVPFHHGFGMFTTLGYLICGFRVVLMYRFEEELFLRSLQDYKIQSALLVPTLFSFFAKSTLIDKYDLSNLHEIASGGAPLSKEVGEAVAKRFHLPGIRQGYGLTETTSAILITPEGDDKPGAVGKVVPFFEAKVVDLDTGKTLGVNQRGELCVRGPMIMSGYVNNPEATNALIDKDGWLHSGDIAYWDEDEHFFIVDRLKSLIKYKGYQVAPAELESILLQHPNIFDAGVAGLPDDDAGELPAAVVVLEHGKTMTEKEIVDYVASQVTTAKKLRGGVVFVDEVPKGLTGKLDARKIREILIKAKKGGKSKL
Wee1-like protein kinase, sequence (P30291 whole entry): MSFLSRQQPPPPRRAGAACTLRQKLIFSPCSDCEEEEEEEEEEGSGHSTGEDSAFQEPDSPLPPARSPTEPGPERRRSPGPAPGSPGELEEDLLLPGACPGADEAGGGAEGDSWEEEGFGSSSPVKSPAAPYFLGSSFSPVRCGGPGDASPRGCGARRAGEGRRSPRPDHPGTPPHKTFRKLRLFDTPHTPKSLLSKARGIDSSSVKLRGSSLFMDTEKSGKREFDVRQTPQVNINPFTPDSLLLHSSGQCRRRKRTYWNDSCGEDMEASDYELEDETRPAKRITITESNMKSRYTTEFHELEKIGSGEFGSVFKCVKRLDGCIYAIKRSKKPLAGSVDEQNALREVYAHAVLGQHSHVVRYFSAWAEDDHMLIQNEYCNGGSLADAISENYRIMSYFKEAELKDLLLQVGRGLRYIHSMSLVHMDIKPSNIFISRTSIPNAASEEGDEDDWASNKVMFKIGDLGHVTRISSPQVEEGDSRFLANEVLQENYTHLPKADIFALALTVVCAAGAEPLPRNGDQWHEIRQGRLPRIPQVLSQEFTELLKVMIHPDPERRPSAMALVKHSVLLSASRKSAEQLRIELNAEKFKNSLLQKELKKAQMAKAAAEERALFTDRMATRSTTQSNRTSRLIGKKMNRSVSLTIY
Voltage-gated N-type calcium channel alpha-1B subunit/Amyloid beta A4 precursor protein-binding family A member 1, sequence (Q00975 whole entry): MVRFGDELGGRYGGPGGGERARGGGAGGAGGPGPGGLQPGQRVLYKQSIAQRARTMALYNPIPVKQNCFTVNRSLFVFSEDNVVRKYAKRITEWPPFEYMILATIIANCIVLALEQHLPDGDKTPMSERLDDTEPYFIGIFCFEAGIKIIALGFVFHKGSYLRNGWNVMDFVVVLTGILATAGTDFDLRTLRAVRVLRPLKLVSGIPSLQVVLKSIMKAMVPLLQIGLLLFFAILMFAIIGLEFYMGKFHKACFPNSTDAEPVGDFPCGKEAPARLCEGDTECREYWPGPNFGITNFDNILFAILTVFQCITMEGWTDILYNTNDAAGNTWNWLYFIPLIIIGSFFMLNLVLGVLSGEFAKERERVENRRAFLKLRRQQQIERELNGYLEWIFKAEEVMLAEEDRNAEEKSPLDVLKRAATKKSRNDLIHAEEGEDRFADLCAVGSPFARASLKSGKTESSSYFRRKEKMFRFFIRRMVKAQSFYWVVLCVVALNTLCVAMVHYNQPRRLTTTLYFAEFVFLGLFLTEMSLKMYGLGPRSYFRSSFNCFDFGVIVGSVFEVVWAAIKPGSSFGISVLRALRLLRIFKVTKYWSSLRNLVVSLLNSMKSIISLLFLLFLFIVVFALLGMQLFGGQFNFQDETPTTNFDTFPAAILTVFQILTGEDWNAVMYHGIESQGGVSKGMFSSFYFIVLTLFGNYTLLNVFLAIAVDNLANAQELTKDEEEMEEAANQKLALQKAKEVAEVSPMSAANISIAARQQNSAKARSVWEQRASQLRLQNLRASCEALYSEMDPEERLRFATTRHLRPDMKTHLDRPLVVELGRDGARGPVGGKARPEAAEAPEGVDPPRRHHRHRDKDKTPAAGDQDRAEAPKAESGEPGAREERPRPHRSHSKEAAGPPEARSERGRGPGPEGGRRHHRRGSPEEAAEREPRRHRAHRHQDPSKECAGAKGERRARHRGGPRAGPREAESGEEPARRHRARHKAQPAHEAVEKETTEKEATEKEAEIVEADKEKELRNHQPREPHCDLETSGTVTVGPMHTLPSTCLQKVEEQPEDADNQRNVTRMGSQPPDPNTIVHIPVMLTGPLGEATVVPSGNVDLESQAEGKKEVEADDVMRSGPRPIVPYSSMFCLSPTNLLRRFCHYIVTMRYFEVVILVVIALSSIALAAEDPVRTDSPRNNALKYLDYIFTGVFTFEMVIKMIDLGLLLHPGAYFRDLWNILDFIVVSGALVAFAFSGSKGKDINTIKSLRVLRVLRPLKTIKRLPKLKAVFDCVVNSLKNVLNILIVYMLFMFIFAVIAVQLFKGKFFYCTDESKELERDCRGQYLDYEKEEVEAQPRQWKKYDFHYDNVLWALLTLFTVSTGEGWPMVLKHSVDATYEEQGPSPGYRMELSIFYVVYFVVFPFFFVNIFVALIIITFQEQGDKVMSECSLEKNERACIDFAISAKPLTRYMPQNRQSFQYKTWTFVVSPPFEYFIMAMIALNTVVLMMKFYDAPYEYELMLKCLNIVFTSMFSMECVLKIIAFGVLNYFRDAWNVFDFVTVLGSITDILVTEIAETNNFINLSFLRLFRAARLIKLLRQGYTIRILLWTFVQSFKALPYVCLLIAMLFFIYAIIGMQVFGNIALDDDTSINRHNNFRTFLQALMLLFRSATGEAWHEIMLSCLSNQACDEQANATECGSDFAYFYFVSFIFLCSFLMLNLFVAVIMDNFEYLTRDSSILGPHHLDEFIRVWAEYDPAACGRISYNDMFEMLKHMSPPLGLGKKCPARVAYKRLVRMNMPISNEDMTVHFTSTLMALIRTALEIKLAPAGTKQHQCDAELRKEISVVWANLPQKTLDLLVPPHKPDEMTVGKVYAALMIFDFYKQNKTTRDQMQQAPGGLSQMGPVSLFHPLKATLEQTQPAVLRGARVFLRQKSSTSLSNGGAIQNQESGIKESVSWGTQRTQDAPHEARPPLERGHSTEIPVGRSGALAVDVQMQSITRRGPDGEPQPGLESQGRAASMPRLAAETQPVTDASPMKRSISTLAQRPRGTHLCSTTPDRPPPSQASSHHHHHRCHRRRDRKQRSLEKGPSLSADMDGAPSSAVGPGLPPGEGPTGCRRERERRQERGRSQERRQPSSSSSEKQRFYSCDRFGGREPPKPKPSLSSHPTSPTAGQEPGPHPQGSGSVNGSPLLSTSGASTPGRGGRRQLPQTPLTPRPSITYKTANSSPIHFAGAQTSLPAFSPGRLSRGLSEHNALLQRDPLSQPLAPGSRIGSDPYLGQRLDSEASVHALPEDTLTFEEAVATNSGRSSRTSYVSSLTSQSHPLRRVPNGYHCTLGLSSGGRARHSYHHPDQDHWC
Voltage-gated N-type calcium channel alpha-1B subunit/Amyloid beta A4 precursor protein-binding family A member 1, sequence (Q02410 whole entry): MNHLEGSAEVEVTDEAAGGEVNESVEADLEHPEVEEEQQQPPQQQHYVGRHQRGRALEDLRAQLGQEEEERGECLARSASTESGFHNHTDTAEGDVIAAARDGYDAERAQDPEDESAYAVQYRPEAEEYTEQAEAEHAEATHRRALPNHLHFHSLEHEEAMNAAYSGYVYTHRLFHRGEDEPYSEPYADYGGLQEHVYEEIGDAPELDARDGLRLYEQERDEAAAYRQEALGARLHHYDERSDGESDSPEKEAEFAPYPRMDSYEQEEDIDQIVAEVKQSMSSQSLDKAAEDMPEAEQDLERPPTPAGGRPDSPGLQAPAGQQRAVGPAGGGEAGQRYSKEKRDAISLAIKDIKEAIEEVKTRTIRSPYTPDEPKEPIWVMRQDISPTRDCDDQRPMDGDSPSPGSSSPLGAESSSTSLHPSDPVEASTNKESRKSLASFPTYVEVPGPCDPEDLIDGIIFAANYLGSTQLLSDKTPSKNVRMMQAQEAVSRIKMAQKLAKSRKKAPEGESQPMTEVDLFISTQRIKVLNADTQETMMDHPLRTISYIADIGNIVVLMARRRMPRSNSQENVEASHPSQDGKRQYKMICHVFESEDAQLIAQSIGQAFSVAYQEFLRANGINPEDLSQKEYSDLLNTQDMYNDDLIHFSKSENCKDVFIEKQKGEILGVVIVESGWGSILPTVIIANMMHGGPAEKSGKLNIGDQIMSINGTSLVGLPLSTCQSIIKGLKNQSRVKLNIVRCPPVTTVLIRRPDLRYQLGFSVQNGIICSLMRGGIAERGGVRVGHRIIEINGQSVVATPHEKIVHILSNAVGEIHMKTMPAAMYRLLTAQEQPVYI
Paired box protein Pax-8, sequence (Q06710 whole entry): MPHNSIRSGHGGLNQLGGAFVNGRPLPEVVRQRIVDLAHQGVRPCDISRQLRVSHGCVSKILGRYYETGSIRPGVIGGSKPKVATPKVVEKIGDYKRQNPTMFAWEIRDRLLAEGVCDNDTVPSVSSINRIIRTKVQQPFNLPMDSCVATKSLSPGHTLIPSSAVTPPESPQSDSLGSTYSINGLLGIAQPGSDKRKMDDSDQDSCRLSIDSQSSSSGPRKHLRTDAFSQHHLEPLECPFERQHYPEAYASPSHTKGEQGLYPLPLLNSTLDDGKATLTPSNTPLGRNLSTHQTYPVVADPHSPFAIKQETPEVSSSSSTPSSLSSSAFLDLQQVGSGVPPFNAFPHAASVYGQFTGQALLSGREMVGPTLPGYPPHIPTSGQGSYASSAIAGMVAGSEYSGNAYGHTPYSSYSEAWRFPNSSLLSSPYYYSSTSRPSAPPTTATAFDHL

SMILES: COc1ccc(C(=O)NNC(=O)c2ccccn2)cc1
EC50 [1]: 1.11 µM (active) | EC50 [2]: 0.98 µM (active) | EC50 [3]: 0.429 µM (active) | AC50 [4]: 14.2 µM (active) | AC50 [5]: 8.77 µM (active) | IC50 [6]: > 80 µM (inactive) | AC50 (Paired box protein Pax-8): 7.51 µM (active) | AC50 [7]: 15.7 µM (active)

SMILES: Cc1nnc(NC(=O)CSc2ccc(-c3ccco3)nn2)s1
IC50 [8]: 6.17 µM (active) | IC50 [9]: 64.1 µM (active)

SMILES: COC(=O)c1cnn(-c2ccc(F)cc2F)c1/C=N/NC(N)=S
EC50 [2]: > 112 µM (not active) | EC50 [3]: > 112 µM (not active) | IC50 [14]: > 32 µM (inactive) | IC50 [15]: > 32 µM (inactive)

SMILES: CC(C)c1cc(C(C)C)c(S(=O)(=O)n2cccc2/C=C(\C#N)S(C)(=O)=O)c(C(C)C)c1
IC50 [16]: > 20 µM (inactive)

Results, then the molecule that gave them:

IC50 [10]: 3.1 µM (active) | IC50 [11]: 5.4 µM (active)
SMILES: COc1nn(-c2cccc(C)c2)c(=O)c(Cl)c1Cl

EC50 [12]: 6.32 µM (active)
SMILES: O=C(Nc1cccc(F)c1)Nc1cncc(F)c1

IC50 [13]: > 56.8 µM (inactive)
SMILES: O=C(c1cc(-c2ccco2)nc2ccccc12)N1CCC(N2CCCC2)CC1

EC50 [17]: 33.9 µM (inactive) | EC50 [18]: 20.7 µM (active)
SMILES: CC1(C)CC(=O)C(=Cc2cn(-c3ccccc3)nc2-c2ccccc2)C(=O)C1

EC50 (Wee1-like protein kinase): > 16.6 µM (active) | EC50 [19]: > 49.7 µM (inactive)
SMILES: Cc1ccc(OCC(=O)Nc2cc(C)nn2-c2nc(C)cc(O)n2)cc1
